Test results reported in US9302999B2, “Substituted triazoles as herbicides” (E. I. DU PONT DE NEMOURS AND COMPANY, priority 2012, dated 2016).

Experiments:
[1] = system: Waterhemp; assay: Test C preemergence: waterhemp; type: in vivo, Amaranthus rudis; conditions: scale 0 to 100, 0 no effect, 100 complete control
[2] = system: canarygrass (Phalaris minor); assay: Test D pre-/postemergence: canarygrass; type: in vivo
In short: (§1)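 Scores run from 0 (no effect) to 100 (complete control), assigned by visual comparison with controls after 14 to 21 days in a controlled environment. Both preemergence application to silt loam and postemergence application to 1- to 4-leaf plants were tested.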

[3] = system: chickweed (common chickweed, Stellaria media); assay: Test D pre-/postemergence: chickweed; type: in vivo
In short: as §1

[4] = system: bromegrass, downy (downy bromegrass, Bromus tectorum); assay: Test D pre-/postemergence: bromegrass, downy; type: in vivo
In short: as §1

[5] = system: radish, wild (wild radish, Raphanus raphanistrum); assay: Test D pre-/postemergence: radish, wild; type: in vivo
In short: as §1

[6] = system: wheat, winter (winter wheat, Triticum aestivum); assay: Test D pre-/postemergence: wheat, winter; type: in vivo
In short: as §1

[7] = system: velvetleaf (Abutilon theophrasti); assay: Test F pre-/postemergence: velvetleaf; type: in vivo; conditions: Preemergence
In short: (§2)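 0–100 visual control scores, taken 14–21 d after application in the greenhouse. Preemergence treatment was made to silt loam soil at sowing. Postemergence sprays hit 1- to 4-leaf plants (2–18 cm) in peat/vermiculite mix. Surfactant-containing non-phytotoxic solvent served as the vehicle.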

[8] = system: crabgrass, large (large crabgrass, Digitaria sanguinalis); assay: Test F pre-/postemergence: crabgrass, large; type: in vivo; conditions: Preemergence
In short: as §2

[9] = system: foxtail, giant (giant foxtail, Setaria faberii); assay: Test F pre-/postemergence: foxtail, giant; type: in vivo; conditions: Preemergence
In short: as §2

[10] = system: beggarticks (hairy beggarticks, Bidens pilosa); assay: Test F pre-/postemergence: beggarticks; type: in vivo
In short: as §2

[11] = Postemergence, 31 g ai/ha, scale 0 to 100 (0 no effect, 100 complete control)
[12] = Postemergence, 62 g ai/ha, scale 0 to 100 (0 no effect, 100 complete control)
[13] = Postemergence, 125 g ai/ha, scale 0 to 100, 0 no effect, 100 complete control
[14] = Postemergence, 16 g ai/ha, scale 0 to 100
[15] = Preemergence, 16 g ai/ha, scale 0 to 100, 0 no effect, 100 complete control
[16] = Preemergence, 31 g ai/ha, scale 0 to 100, 0 no effect, 100 complete control
[17] = Preemergence, 62 g ai/ha, scale 0 to 100
[18] = Preemergence, 125 g ai/ha, scale 0 to 100
[19] = 8 g ai/ha, scale 0 to 100, 0 no effect, 100 complete control
[20] = 16 g ai/ha, scale 0 to 100, 0 no effect, 100 complete control
[21] = 31 g ai/ha, scale 0 to 100, 0 no effect, 100 complete control

FCc1nn(-c2ccc(F)cc2)nc1Oc1ccnc(C(F)(F)F)c1 [Compound 160]
Plant response rating, Waterhemp ([1]; 125 g ai/ha): 100

CCOCc1nn(-c2ccc(F)cc2)nc1Oc1ccnc(C(F)(F)F)c1 [Compound 163]
Plant response rating, Waterhemp ([1]; 125 g ai/ha): 100

CCOc1nn(-c2ccc(Cl)cc2)nc1Cc1ccnc(C(F)(F)F)c1 [Compound 188]
Plant response rating, Waterhemp ([1]; 125 g ai/ha): 100 | Plant response rating, Waterhemp ([1]; 250 g ai/ha): 100

CCOc1nn(-c2ccc(F)cc2)nc1Cc1ccnc(C(F)(F)F)c1 [Compound 196, 4-[[5-ethoxy-2-(4-fluorophenyl)-2H-1,2,3-triazol-4-yl]methyl]-2-(trifluoromethyl)pyridine]
Plant response rating: Canarygrass [2, 11]: 70 | Plant response rating: Canarygrass [2, 12]: 80 | Plant response rating: Canarygrass [2, 13]: 85 | Plant response rating, Canarygrass [2, 14]: 30 | Plant response rating, Canarygrass [2, 15]: 40 | Plant response rating, Canarygrass [2, 16]: 100 | Plant response rating, Canarygrass [2, 17]: 100 | Plant response rating, Canarygrass [2, 18]: 100 | Plant response rating: Chickweed [3, 11]: 85 | Plant response rating: Chickweed [3, 12]: 95 | Plant response rating: Chickweed [3, 13]: 100 | Plant response rating, Chickweed [3, 14]: 70 | Plant response rating, Chickweed [3, 15]: 50 | Plant response rating, Chickweed [3, 16]: 65 | Plant response rating, Chickweed [3, 17]: 100 | Plant response rating, Chickweed [3, 18]: 100 | Plant response rating: Bromegrass, Downy [4, 11]: 35 | Plant response rating: Bromegrass, Downy [4, 12]: 50 | Plant response rating: Bromegrass, Downy [4, 13]: 65 | Plant response rating, Bromegrass, Downy [4, 14]: 15 | Plant response rating, Bromegrass, Downy [4, 15]: 5 | Plant response rating, Bromegrass, Downy [4, 16]: 15 | Plant response rating, Bromegrass, Downy [4, 17]: 70 | Plant response rating, Bromegrass, Downy [4, 18]: 90 | Plant response rating: Radish, Wild [5, 11]: 100 | Plant response rating: Radish, Wild [5, 12]: 100 | Plant response rating: Radish, Wild [5, 13]: 100 | Plant response rating, Radish, Wild [5, 14]: 65 | Plant response rating, Radish, Wild [5, 15]: 50 | Plant response rating, Radish, Wild [5, 16]: 20 | Plant response rating, Radish, Wild [5, 17]: 70 | Plant response rating, Radish, Wild [5, 18]: 100 | Plant response rating: Wheat, Winter [6, 11]: 20 | Plant response rating: Wheat, Winter [6, 12]: 25 | Plant response rating: Wheat, Winter [6, 13]: 35 | Plant response rating, Wheat, Winter [6, 14]: 15 | Plant response rating, Wheat, Winter [6, 15]: 5 | Plant response rating, Wheat, Winter [6, 16]: 5 | Plant response rating, Wheat, Winter [6, 17]: 10 | Plant response rating, Wheat, Winter [6, 18]: 15 | Plant response rating, Velvetleaf [7, 19]: 0 | Plant response rating, Velvetleaf [7, 20]: 10 | Plant response rating, Velvetleaf [7, 21]: 20 | Plant response rating, Velvetleaf ([7]; 125 g ai/ha, scale 0 to 100): 95 | Plant response rating, Crabgrass, Large [8, 20]: 75 | Plant response rating, Crabgrass, Large [8, 21]: 100 | Plant response rating, Crabgrass, Large ([8]; 62 g ai/ha, scale 0 to 100): 100 | Plant response rating, Crabgrass, Large ([8]; 125 g ai/ha, scale 0 to 100): 100 | Plant response rating, Foxtail, Giant [9, 19]: 5 | Plant response rating, Foxtail, Giant [9, 20]: 85 | Plant response rating, Foxtail, Giant [9, 21]: 98 | Plant response rating, Foxtail, Giant ([9]; 62 g ai/ha, scale 0 to 100): 98 | Plant response rating, Foxtail, Giant ([9]; 125 g ai/ha, scale 0 to 100): 100 | Plant response rating, Beggarticks ([10]; Postemergence, 8 g ai/ha, scale 0 to 100): 50 | Plant response rating, Beggarticks [10, 14]: 60 | Plant response rating, Beggarticks ([10]; Postemergence, 31 g ai/ha, scale 0 to 100): 60 | Plant response rating, Beggarticks ([10]; Postemergence, 62 g ai/ha, scale 0 to 100): 60 | Plant response rating, Beggarticks ([10]; Postemergence, 125 g ai/ha, scale 0 to 100): 70 | Plant response rating, Beggarticks ([10]; Preemergence, 8 g ai/ha, scale 0 to 100, 0 no effect, 100 complete control): 0 | Plant response rating, Beggarticks [10, 15]: 50 | Plant response rating, Beggarticks [10, 16]: 50 | Plant response rating, Beggarticks [10, 17]: 50 | Plant response rating, Beggarticks [10, 18]: 65
